{"source": "the supplement of paper PMC10307832", "test_in_all_cases": "relative viability (nuclei count vs DMSO), 5 days (fraction); higher = more cells survive", "key": {"HOP-62": {"tested_on": "HOP-62", "procedure,_shortened": "(§1)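 Five library-drug doses in √10 steps were combined with a fixed anchor-drug dose, or a single drug was given alone, by pin tool to lung cancer cell lines in 1536-well plates the day after seeding. Nuclei were stained and counted after 5 days. Relative viability is the nuclei count in treated wells over that in vehicle wells, taken as the median of duplicate plates.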"}, "EMC-BAC-2": {"tested_on": "EMC-BAC-2", "procedure,_shortened": "as §1"}, "COR-L 105": {"tested_on": "COR-L 105", "procedure,_shortened": "as §1"}, "NCI-H2405": {"tested_on": "NCI-H2405", "procedure,_shortened": "as §1"}, "NCI-H1734": {"tested_on": "NCI-H1734", "procedure,_shortened": "as §1"}, "COR-L23": {"tested_on": "COR-L23", "procedure,_shortened": "as §1"}, "PC-14": {"tested_on": "PC-14", "procedure,_shortened": "as §1"}, "NCI-H1993": {"tested_on": "NCI-H1993", "procedure,_shortened": "as §1"}, "NCI-H1915": {"tested_on": "NCI-H1915", "procedure,_shortened": "as §1"}, "HCC-78": {"tested_on": "HCC-78", "procedure,_shortened": "as §1"}, "LK-2": {"tested_on": "LK-2", "procedure,_shortened": "as §1"}, "NCI-H647": {"tested_on": "NCI-H647", "procedure,_shortened": "as §1"}, "EKVX": {"tested_on": "EKVX", "procedure,_shortened": "as §1"}, "HCC-15": {"tested_on": "HCC-15", "procedure,_shortened": "as §1"}, "NCI-H522": {"tested_on": "NCI-H522", "procedure,_shortened": "as §1"}, "HCC-366": {"tested_on": "HCC-366", "procedure,_shortened": "as §1"}, "201T": {"tested_on": "201T", "procedure,_shortened": "as §1"}, "NCI-H661": {"tested_on": "NCI-H661", "procedure,_shortened": "as §1"}, "A-427": {"tested_on": "A-427", "procedure,_shortened": "as §1"}, "NCI-H460": {"tested_on": "NCI-H460", "procedure,_shortened": "as §1"}, "BEN": {"tested_on": "BEN", "procedure,_shortened": "as §1"}, "SK-MES-1": {"tested_on": "SK-MES-1", "procedure,_shortened": "as §1"}}, "data": [{"smiles": "CN1CCN(CCOc2cc(OC3CCOCC3)c3c(Nc4c(Cl)ccc5c4OCO5)ncnc3c2)CC1", "note": "[Saracatinib] + Cc1cc(Nc2cc(N3CCN(C)CC3)nc(Sc3ccc(NC(=O)C4CC4)cc3)n2)n[nH]1 [Tozasertib] (partner 0.1 µM)", "values": [{"measurement": "relative viability", "setting": "HOP-62; first compound 0.02 µM", "value": 0.367}, {"measurement": "relative viability", "setting": "HOP-62; first compound 0.2 µM", "value": 0.318}, {"measurement": "relative viability", "setting": "HOP-62; first compound 0.6325 µM", "value": 0.394}, {"measurement": "relative viability", "setting": "HOP-62; first compound 2 µM", "value": 0.384}, {"measurement": "relative viability", "setting": "EMC-BAC-2; first compound 0.02 µM", "value": 0.265}, {"measurement": "relative viability", "setting": "EMC-BAC-2; first compound 0.2 µM", "value": 0.256}, {"measurement": "relative viability", "setting": "EMC-BAC-2; first compound 0.6325 µM", "value": 0.286}, {"measurement": "relative viability", "setting": "EMC-BAC-2; first compound 2 µM", "value": 0.271}, {"measurement": "relative viability", "setting": "COR-L 105; first compound 0.02 µM", "value": 0.358}, {"measurement": "relative viability", "setting": "COR-L 105; first compound 0.2 µM", "value": 0.323}, {"measurement": "relative viability", "setting": "COR-L 105; first compound 0.6325 µM", "value": 0.309}, {"measurement": "relative viability", "setting": "COR-L 105; first compound 2 µM", "value": 0.282}, {"measurement": "relative viability", "setting": "NCI-H2405; first compound 0.02 µM", "value": 0.778}, {"measurement": "relative viability", "setting": "NCI-H2405; first compound 0.2 µM", "value": 0.661}, {"measurement": "relative viability", "setting": "NCI-H2405; first compound 0.6325 µM", "value": 0.706}, {"measurement": "relative viability", "setting": "NCI-H2405; first compound 2 µM", "value": 0.521}, {"measurement": "relative viability", "setting": "NCI-H1734; first compound 0.02 µM", "value": 0.305}, {"measurement": "relative viability", "setting": "NCI-H1734; first compound 0.6325 µM", "value": 0.261}, {"measurement": "relative viability", "setting": "NCI-H1734; first compound 2 µM", "value": 0.24}, {"measurement": "relative viability", "setting": "COR-L23; first compound 0.02 µM", "value": 0.185}, {"measurement": "relative viability", "setting": "COR-L23; first compound 0.2 µM", "value": 0.207}, {"measurement": "relative viability", "setting": "COR-L23; first compound 0.6325 µM", "value": 0.155}, {"measurement": "relative viability", "setting": "COR-L23; first compound 2 µM", "value": 0.174}, {"measurement": "relative viability", "setting": "PC-14; first compound 0.02 µM", "value": 0.603}, {"measurement": "relative viability", "setting": "PC-14; first compound 0.2 µM", "value": 0.514}, {"measurement": "relative viability", "setting": "PC-14; first compound 0.6325 µM", "value": 0.475}, {"measurement": "relative viability", "setting": "PC-14; first compound 2 µM", "value": 0.209}, {"measurement": "relative viability", "setting": "NCI-H1993; first compound 0.02 µM", "value": 0.6}, {"measurement": "relative viability", "setting": "NCI-H1993; first compound 0.2 µM", "value": 0.559}, {"measurement": "relative viability", "setting": "NCI-H1993; first compound 0.6325 µM", "value": 0.569}, {"measurement": "relative viability", "setting": "NCI-H1993; first compound 2 µM", "value": 0.576}, {"measurement": "relative viability", "setting": "NCI-H1915; first compound 0.02 µM", "value": 0.432}, {"measurement": "relative viability", "setting": "NCI-H1915; first compound 0.2 µM", "value": 0.382}, {"measurement": "relative viability", "setting": "NCI-H1915; first compound 0.6325 µM", "value": 0.461}, {"measurement": "relative viability", "setting": "NCI-H1915; first compound 2 µM", "value": 0.343}, {"measurement": "relative viability", "setting": "HCC-78; first compound 0.02 µM", "value": 0.403}, {"measurement": "relative viability", "setting": "HCC-78; first compound 0.6325 µM", "value": 0.572}, {"measurement": "relative viability", "setting": "HCC-78; first compound 2 µM", "value": 0.405}, {"measurement": "relative viability", "setting": "LK-2; first compound 0.02 µM", "value": 0.205}, {"measurement": "relative viability", "setting": "LK-2; first compound 0.2 µM", "value": 0.188}, {"measurement": "relative viability", "setting": "LK-2; first compound 0.6325 µM", "value": 0.204}, {"measurement": "relative viability", "setting": "LK-2; first compound 2 µM", "value": 0.193}, {"measurement": "relative viability", "setting": "NCI-H647; first compound 0.02 µM", "value": 0.257}, {"measurement": "relative viability", "setting": "NCI-H647; first compound 0.2 µM", "value": 0.293}, {"measurement": "relative viability", "setting": "NCI-H647; first compound 0.6325 µM", "value": 0.275}, {"measurement": "relative viability", "setting": "NCI-H647; first compound 2 µM", "value": 0.231}, {"measurement": "relative viability", "setting": "EKVX; first compound 0.02 µM", "value": 0.357}, {"measurement": "relative viability", "setting": "EKVX; first compound 0.6325 µM", "value": 0.366}, {"measurement": "relative viability", "setting": "EKVX; first compound 2 µM", "value": 0.254}, {"measurement": "relative viability", "setting": "HCC-15; first compound 0.02 µM", "value": 0.403}, {"measurement": "relative viability", "setting": "HCC-15; first compound 0.2 µM", "value": 0.372}, {"measurement": "relative viability", "setting": "HCC-15; first compound 0.6325 µM", "value": 0.365}, {"measurement": "relative viability", "setting": "HCC-15; first compound 2 µM", "value": 0.24}, {"measurement": "relative viability", "setting": "NCI-H522; first compound 0.02 µM", "value": 0.557}, {"measurement": "relative viability", "setting": "NCI-H522; first compound 0.6325 µM", "value": 0.534}, {"measurement": "relative viability", "setting": "NCI-H522; first compound 2 µM", "value": 0.458}, {"measurement": "relative viability", "setting": "HCC-366; first compound 0.02 µM", "value": 0.117}, {"measurement": "relative viability", "setting": "HCC-366; first compound 0.6325 µM", "value": 0.074}, {"measurement": "relative viability", "setting": "HCC-366; first compound 2 µM", "value": 0.0412}, {"measurement": "relative viability", "setting": "201T; first compound 0.02 µM", "value": 0.977}, {"measurement": "relative viability", "setting": "201T; first compound 0.2 µM", "value": 0.89}, {"measurement": "relative viability", "setting": "201T; first compound 0.6325 µM", "value": 0.821}, {"measurement": "relative viability", "setting": "201T; first compound 2 µM", "value": 0.686}, {"measurement": "relative viability", "setting": "NCI-H661; first compound 0.02 µM", "value": 0.36}, {"measurement": "relative viability", "setting": "NCI-H661; first compound 0.2 µM", "value": 0.308}, {"measurement": "relative viability", "setting": "NCI-H661; first compound 0.6325 µM", "value": 0.342}, {"measurement": "relative viability", "setting": "NCI-H661; first compound 2 µM", "value": 0.328}, {"measurement": "relative viability", "setting": "A-427; first compound 0.02 µM", "value": 0.215}, {"measurement": "relative viability", "setting": "A-427; first compound 0.2 µM", "value": 0.18}, {"measurement": "relative viability", "setting": "A-427; first compound 0.6325 µM", "value": 0.207}, {"measurement": "relative viability", "setting": "A-427; first compound 2 µM", "value": 0.206}, {"measurement": "relative viability", "setting": "NCI-H460; first compound 0.02 µM", "value": 0.407}, {"measurement": "relative viability", "setting": "NCI-H460; first compound 0.2 µM", "value": 0.397}, {"measurement": "relative viability", "setting": "NCI-H460; first compound 0.6325 µM", "value": 0.433}, {"measurement": "relative viability", "setting": "NCI-H460; first compound 2 µM", "value": 0.279}, {"measurement": "relative viability", "setting": "BEN; first compound 0.02 µM", "value": 0.518}, {"measurement": "relative viability", "setting": "BEN; first compound 0.2 µM", "value": 0.477}, {"measurement": "relative viability", "setting": "BEN; first compound 0.6325 µM", "value": 0.458}, {"measurement": "relative viability", "setting": "BEN; first compound 2 µM", "value": 0.419}, {"measurement": "relative viability", "setting": "SK-MES-1; first compound 0.02 µM", "value": 0.868}, {"measurement": "relative viability", "setting": "SK-MES-1; first compound 0.2 µM", "value": 0.836}, {"measurement": "relative viability", "setting": "SK-MES-1; first compound 0.6325 µM", "value": 0.872}, {"measurement": "relative viability", "setting": "SK-MES-1; first compound 2 µM", "value": 0.666}]}]}
